Results: ChEMBL document CHEMBL2086230, “Comparison of the cytotoxic effects of enantiopure PPAPs, including nemorosone and clusianone” (Bioorg Med Chem Lett, 2012)

Columns and labels:
Format in all cases: functional, cell-based
MIA PaCa-2 = assay: Cytotoxicity against human MIAPaCa2 cells after 72 hrs by resazurin assay
MCF7 = assay: Cytotoxicity against human MCF7 cells after 72 hrs by resazurin assay
HeLa = assay: Cytotoxicity against human HeLa cells after 72 hrs by resazurin assay

| SMILES | IC50 (MIA PaCa-2; Homo sapiens, MIA PaCa-2, 72 h) [µM] | IC50 (MCF7; Homo sapiens, MCF7, 72 h) [µM] | IC50 (HeLa; Homo sapiens, HeLa, 72 h) [µM] | IC50 (MIA PaCa-2; mia paca-2) [µM] | IC50 (MCF7; mcf7) [µM] | IC50 (HeLa; hela) [µM] |
| --- | --- | --- | --- | --- | --- | --- |
| CC(C)=CCC1=C(O)C2(CC=C(C)C)CC(CC=C(C)C)C(C)(C)C(C(=O)c3ccccc3)(C1=O)C2=O (single isomer, unassigned; (+)) | 3.4 | 6.5 | 3.9 |  |  |  |
| CC(C)=CCC1=C(O)C2(CC=C(C)C)CC(CC=C(C)C)C(C)(C)C(C(=O)c3ccccc3)(C1=O)C2=O (stereo in doubt; (-)-3) |  |  |  | 3.5 | 8 | 3.4 |
| Nc1ccn([C@@H]2O[C@H](CO)[C@@H](O)C2(F)F)c(=O)n1 [GEMCITABINE] | 0.06 | 0.06 | 0.05 |  |  |  |
| CC(C)=CCC1=C(O)C2(C(=O)c3ccccc3)CC(CC=C(C)C)C(C)(C)C(CC=C(C)C)(C1=O)C2=O (single isomer, unassigned; (+)) | 11.3 | 18.9 | 10.1 |  |  |  |
| CC(C)=CCC1=C(O)[C@@]2(C(=O)c3ccccc3)C(=O)[C@](CC=C(C)C)(C[C@H](CC=C(C)C)C2(C)C)C1=O | 2.4 | 5.2 | 2.9 |  |  |  |
| CC(C)=CC[C@H]1C[C@]2(CC=C(C)C)C(=O)[C@@](CC=C(C)C)(C(=O)C(C(=O)c3ccccc3)=C2O)C1(C)C (stereo in doubt; (+)-4) [6-EPI-CLUSIANONE] | 5.2 | 8.3 | 5.8 |  |  |  |
| CC(C)=CCC1=C(O)C2(C(=O)c3ccccc3)CC(CC=C(C)C)C(C)(C)C(CC=C(C)C)(C1=O)C2=O (stereo in doubt; (-)-5) |  |  |  | 8.6 | 10.9 | 10.9 |
| CC(C)=CC[C@H]1C[C@]2(CC=C(C)C)C(=O)[C@@](CC=C(C)C)(C(=O)C(C(=O)c3ccccc3)=C2O)C1(C)C (stereo in doubt; (-)-4) [6-EPI-CLUSIANONE] |  |  |  | 3.8 | 5.7 | 3 |
